Data on three compounds can be found in patent publication US20160158375A1, “DIPEPTIDE LINKED MEDICINAL AGENTS” (Indiana University Research and Technology Corporation, priority 2010, published 2016).

A short description of series [1]: Rate of model dipeptide cleavage in PBS (HPLC / LC-MS). The settings on record: for Relative peak area (%), HPLC peak a / Relative peak area (%), HPLC peak b: PBS, 37° C.; for Relative peak area (%), HPLC peak a: peak a molecular weight 702; for Relative peak area (%), HPLC peak b: peak b molecular weight 902. Here is the method: The solution was incubated at 37° C. […] The dipeptide cleavage was quenched by lowering the pH with an equal volume of 0.1% TFA. The rate of cleavage was qualitatively monitored by LC-MS and quantitatively studied by HPLC. The retention time and relative peak area for the prodrug and the parent model peptide were quantified using Peak Simple Chromatography software.
The flow rate was 1 ml/min.
The concentrations of the prodrugs and the model parent peptide were determined by their respective peak areas, ‘a’ and ‘b’ for each of the different collection times (Table 1). […] The slope of this plot provides the rate constant 1′.

For series [2] the following is noted: plasma; for Relative peak area (%), HPLC peak a: peak a molecular weight 702; for Relative peak area (%), HPLC peak b: peak b molecular weight 902.

Each structure is given as a SMILES string. Read-outs that look alike come from different tables or passages of the source. Square brackets hold non-standard residues; d marks the D form. Peptide text beside a SMILES is read from it. Sar = CNCC(=O)O

As a reminder, the half-life is the time needed for the level to fall by half in the phase considered. Lower therefore signals fast loss.

`C[C@@H](O)[C@H](NC(=O)CNC(=O)[C@H](CCCNC(=N)N)NC(=O)[C@H](CO)NC(=O)[C@H](Cc1c[nH]cn1)NC(=O)CN(C)C(=O)C(C)(C)N)C(=O)N[C@@H](Cc1ccccc1)C(N)=O` [Compound 24] showed a half-life at 1 mg/ml in series [1] (buffer) of 9 min.

For the compound `C[C@@H](O)[C@H](NC(=O)CNC(=O)[C@H](CCCNC(=N)N)NC(=O)[C@H](CO)NC(=O)[C@H](Cc1c[nH]cn1)NC(=O)CN(C)C(=O)[C@@H](N)CCCCN)C(=O)N[C@@H](Cc1ccccc1)C(N)=O` [peptide A, Lys-Sar-HSRGTF-NH2] (H-K[Sar]HSRGTF-NH2; N-terminus assumed), the “Relative peak area (%), HPLC peak a” value in series [1] (5 h) is recorded as 26.5%; in series [1] (8 h) it was 28.9%; in series [1] (24 h), 28.8%; in series [1] (31 h), 77.7%; in series [1] (47 h) it was 90.0%. In addition, the “Relative peak area (%), HPLC peak b” value in series [1] (5 h) was 73.5%; in series [1] (8 h), 71.1%; in series [1] (24 h), 71.2%; in series [1] (31 h) it was 22.3%; in series [1] (47 h), 10.0%.

Take `C[C@H](O)[C@@H](NC(=O)CNC(=O)[C@@H](CCCNC(=N)N)NC(=O)[C@H](NC(=O)[C@@H](Cc1c[nH]cn1)NC(=O)CN(C)C(=O)[C@@H](N)CCCCN)[C@H](C)O)C(=O)N[C@H](Cc1ccccc1)C(N)=O` [peptide B, Lys-Sar-dHdTdRGdTdF-NH2] (H-K[Sar][dH][dT][dR]G[dT][dF]-NH2): the “Relative peak area (%), HPLC peak a” value in series [2] (5 h) is 17.0%; in series [2] (11 h), 29.2%; in series [2] (24 h), 60.2%; in series [2] (32 h), 54.0%; in series [2] (48 h), 27.6%. The “Relative peak area (%), HPLC peak b” value amounted to 83.0% in series [2] (5 h); 70.8% in series [2] (11 h); 39.8% in series [2] (24 h); 46.0% in series [2] (32 h); 72.4% in series [2] (48 h).
